The text below walks through data of article PMC9469100, “Turning Nonselective Inhibitors of Type I Protein Arginine Methyltransferases into Potent and Selective Inhibitors of Protein Arginine Methyltransferase 4 through a Deconstruction–Reconstruction and Fragment-Growing Approach” (Journal of Medicinal Chemistry, 2022).

Test [1] has as its target PRMT1 (Homo sapiens, UniProt Q99873). The test can be described thus: AlphaLISA PRMT1 activity assay (H4R3me). Conditions: for IC50: AlphaLISA, hPRMT1, 10-concentration mode, threefold dilutions starting at 100 μM; for LE: ligand efficiency calculated from PRMT1 IC50 as a surrogate for KD.
Experimental: Then, we resolved to determine their effect on the catalytic activity of human recombinant PRMT1, chosen as representative of class I PRMTs. […] PRMT1 activity assays were performed by taking advantage of the AlphaLISA homogeneous proximity assay.
The reaction was incubated for 60 min, and then it was stopped by the addition of 5 μL of antimethyl-histone H4 arginine 3 (H4R3me) AlphaLISA acceptor beads (PerkinElmer, #AL150) (final concentration, 20 μg/mL) diluted in Epigenetic Buffer 1X (PerkinElmer, #AL008).
For each incubation step, the OptiPlate was sealed with protective foil to prevent evaporation and contamination. Donor and acceptor beads were added in subdued light.
The 100% activity (positive control) was reached using the vehicle (DMSO) while the 0% activity (negative control) was obtained without the protein. Data were analyzed using Excel software. Values obtained for each compound are mean ± SD determined for three separate experiments.
Test [2] addresses T1, human PRMT4 (full length) (Homo sapiens, UniProt Q86X55).
T1 construct: Full-length recombinant PRMT4 (Active motif, # 81107); purchased Active motif # 81107
T1 sequence (Q86X55 1-608): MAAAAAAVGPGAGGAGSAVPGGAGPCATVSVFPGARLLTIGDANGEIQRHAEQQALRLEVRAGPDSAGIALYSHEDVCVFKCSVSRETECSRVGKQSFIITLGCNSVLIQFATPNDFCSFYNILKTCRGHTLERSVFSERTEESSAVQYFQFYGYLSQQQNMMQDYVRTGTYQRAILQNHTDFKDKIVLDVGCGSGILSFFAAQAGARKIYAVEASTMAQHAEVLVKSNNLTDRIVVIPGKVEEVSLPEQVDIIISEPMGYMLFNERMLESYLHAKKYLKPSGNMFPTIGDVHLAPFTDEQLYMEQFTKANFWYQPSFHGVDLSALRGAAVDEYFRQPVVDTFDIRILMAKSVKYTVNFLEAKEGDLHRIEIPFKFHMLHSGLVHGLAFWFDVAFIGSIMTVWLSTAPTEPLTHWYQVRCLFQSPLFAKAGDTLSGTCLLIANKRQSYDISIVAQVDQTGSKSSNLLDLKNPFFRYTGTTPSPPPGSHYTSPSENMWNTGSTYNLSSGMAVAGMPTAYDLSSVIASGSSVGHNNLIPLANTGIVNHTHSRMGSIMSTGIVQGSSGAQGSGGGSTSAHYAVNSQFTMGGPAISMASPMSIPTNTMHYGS
Nature of the test: SPR binding to immobilized PRMT4. The method, then: To this aim, human PRMT4 (full length) was covalently immobilized on a sensor chip surface using an amine-coupling approach, and the three compounds were injected at different concentrations over the protein surface. To reduce false positives from detergent-sensitive, nonspecific aggregation-based binding, detergents (0.05% Tween-20) were added to the running buffer in all experiments.
SPR experiments were performed on a Biacore T200 biosensor (Cytiva). PBS buffer (phosphate-buffered saline, pH 7.4) supplemented with 0.05% Tween-20 was used as the running buffer. […] One flow cell was left empty for background subtractions. […] Each compound was tested in […], prepared starting from 640 to 10 nM. Binding experiments were performed at 25 °C by using a flow rate of 30 μL/min, with 90 s monitoring of association and 90 s monitoring of dissociation. Regeneration of the surfaces was performed, when necessary, by a 10 s injection of 5 mM NaOH. […] The corrected sensorgrams for each compound were fitted simultaneously using a 1:1 Langmuir model to obtain equilibrium dissociation constants (KD) and kinetic dissociation (koff) and association (kon) constants.

[3] abbreviates: read-out: % PRMT1 residual activ. @ 100 μM.
The mark [4] stands for this setting: read-out: % PRMT1 residual activity at 100 uM.

Read-outs that look alike come from different tables or passages of the source.

Sequence of PRMT1 (Q99873 whole entry): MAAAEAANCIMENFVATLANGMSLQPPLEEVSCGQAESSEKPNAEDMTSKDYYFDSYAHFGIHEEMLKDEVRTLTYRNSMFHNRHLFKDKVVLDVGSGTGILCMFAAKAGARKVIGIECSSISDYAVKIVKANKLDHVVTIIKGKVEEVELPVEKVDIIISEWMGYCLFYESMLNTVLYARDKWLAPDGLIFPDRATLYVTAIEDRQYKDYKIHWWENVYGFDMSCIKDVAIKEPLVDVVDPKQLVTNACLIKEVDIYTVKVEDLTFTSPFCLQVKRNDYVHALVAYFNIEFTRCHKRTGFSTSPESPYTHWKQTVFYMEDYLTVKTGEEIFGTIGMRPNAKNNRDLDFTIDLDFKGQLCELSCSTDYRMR

For `COC(=O)c1cc(O)c2cc(NC(=O)[C@@H](N)CCSC)ccc2c1` [9c, Methyl (S)-6-(2-Amino-4-(methylthio)butanamido)-4-hydroxy-2-naphthoate], the remaining activity at 100 µM in test [1] (setting [3]) and in test [1] (setting [4]) was 92.1 ± 15.8% each time.

Usually Kd stands for the equilibrium constant for the complex coming apart. As a reminder, the koff is the rate constant with which the complex falls apart. What is called kon is the second-order rate constant of association. `C[S+](CC[C@H](N)C(=O)[O-])C[C@H]1O[C@@H](n2cnc3c(N)ncnc32)[C@H](O)[C@@H]1O` (stereo partly drawn) [SAM, S-adenosyl-L-methionine, reference compound] came in with a Kd in test [2] of 9.6 nM. Also, the koff in test [2] (SPR, immobilized PRMT4) is 0.003 s⁻¹. In test [2] (SPR, immobilized PRMT4, read-out: kon), the kon was found to be 290000 M⁻¹ s⁻¹. Besides, in test [2] (in vitro residence time, τ = 1/koff), the “τR” value stood at 333.3 s.

Consider `COC(=O)c1cc(O)c2cc(NC(=O)CNC(=O)Nc3ccc(OC)cc3)ccc2c1` [10c, Methyl 4-Hydroxy-6-(2-(3-(4-methoxyphenyl)ureido)acetamido)-2-naphthoate], for which the remaining activity at 100 µM in test [1] (setting [3]) and in test [1] (setting [4]) was 87.1 ± 2.9% in each case.

Take `COC(=O)c1cc(O)c2cc(NC(=O)CCCCNC3=NCCN3)ccc2c1` [5g, Methyl 6-(5-((4,5-Dihydro-1H-imidazol-2-yl)amino)pentanamido)-4-hydroxy-2-naphthoate]: the remaining activity at 100 µM in test [1] (setting [3]) and in test [1] (setting [4]) was 122 ± 5.8% throughout.

In the case of `COC(=O)c1cc(O)c2cc(NC(=O)CCCCNC(=N)N)ccc2c1` [5a, Methyl 6-(5-Guanidinopentanamido)-4-hydroxy-2-naphthoate], the remaining activity at 100 µM in test [1] (setting [3]) and in test [1] (setting [4]) was 35 ± 0.3% in each case.

Consider `N=C(N)NCCCCNC(=O)Nc1ccc2cc(C(=O)O)cc(O)c2c1` [8a, 6-(3-(4-Guanidinobutyl)ureido)-4-hydroxy-2-naphthoic Acid], for which the remaining activity at 100 µM in test [1] (setting [3]) and in test [1] (setting [4]) was 31.5 ± 3.1% each time.

As a reminder, the IC50 is the concentration that inhibits the measured activity by half. The low end stands for inhibition by little substance, the high end for a need for much substance. `COC(=O)c1cc(O)c2cc(NC(=O)NCCCNC(=N)N)ccc2c1` [7a, Methyl 6-(3-(3-Guanidinopropyl)ureido)-4-hydroxy-2-naphthoate]: in test [1], half-maximal inhibition (IC50) required 1600 nM and the LE is 0.31. In addition, the remaining activity at 100 µM in test [1] (setting [3]) is 0.4 ± 0.1%. Also, the remaining activity at 100 µM in test [1] (setting [4]) amounted to 0.4 ± 0.1%.

For the molecule `COC(=O)c1cc(O)c2cc(NC(=O)NCCCn3ccnc3)ccc2c1` [7f, Methyl 6-(3-(3-(1H-Imidazol-1-yl)propyl)ureido)-4-hydroxy-2-naphthoate], the remaining activity at 100 µM in test [1] (setting [3]) and in test [1] (setting [4]) was 65.6 ± 2.1% in each case.

On to `N=C(N)NCCCCC(=O)Nc1ccc2cc(C(=O)O)cc(O)c2c1` [6a, 6-(5-Guanidinopentanamido)-4-hydroxy-2-naphthoic Acid], for which the remaining activity at 100 µM in test [1] (setting [3]) and in test [1] (setting [4]) was 69.7 ± 2% throughout.

With `COC(=O)c1cc(O)c2cc(NC(=O)[C@@H](N)CCCNC(=N)N)ccc2c1` [11c, Methyl (S)-6-(2-Amino-5-guanidinopentanamido)-4-hydroxy-2-naphthoate], the remaining activity at 100 µM in test [1] (setting [3]) and in test [1] (setting [4]) was 34.2 ± 5.1% each time.

As for `CN(C)C(=N)NCCCCC(=O)Nc1ccc2cc(C(=O)O)cc(O)c2c1` [6e, 6-(5-(3,3-Dimethylguanidino)pentanamido)-4-hydroxy-2-naphthoic Acid], the remaining activity at 100 µM in test [1] (setting [3]) and in test [1] (setting [4]) was 36.8 ± 0.3% in each case.

Regarding `CNC(=N)NCCCNC(=O)Nc1ccc2cc(C(=O)OC)cc(O)c2c1` [7d, Methyl 4-Hydroxy-6-(3-(3-(3-methylguanidino)propyl)ureido)-2-naphthoate], 400 nM corresponded to half-maximal inhibition in test [1] (IC50). Further, the LE in test [1] is reported as 0.33. In addition, the remaining activity at 100 µM in test [1] (setting [3]) and in test [1] (setting [4]) was 0.2 ± 0.1% in each case.

In the case of `COC(=O)c1cc(O)c2cc(NC(=O)[C@H](CCSC)NC(=O)Nc3ccc(OC)cc3)ccc2c1` [9d, Methyl (S)-4-Hydroxy-6-(2-(3-(4-methoxyphenyl)ureido)-4-(methylthio)butanamido)-2-naphthoate], the remaining activity at 100 µM in test [1] (setting [3]) and in test [1] (setting [4]) was 75.9 ± 4.8% each time.

`O=C(CCCCNC1=NCCN1)Nc1ccc2cc(C(=O)O)cc(O)c2c1` [6f, 6-(5-((4,5-Dihydro-1H-imidazol-2-yl)amino)pentanamido)-4-hydroxy-2-naphthoic Acid]: the remaining activity at 100 µM in test [1] (setting [3]) and in test [1] (setting [4]) was 25.1 ± 1.5% throughout.

In the case of `N=C(N)NCCCCCC(=O)Nc1ccc2cc(C(=O)O)cc(O)c2c1` [6b, 6-(6-Guanidinohexanamido)-4-hydroxy-2-naphthoic Acid], the remaining activity at 100 µM in test [1] (setting [3]) and in test [1] (setting [4]) was 65.9 ± 1% throughout.

In the case of `COC(=O)c1cc(O)c2cc(NC(=O)CCCCCCNC(=N)N)ccc2c1` [5c, Methyl 6-(7-Guanidinoheptanamido)-4-hydroxy-2-naphthoate], the IC50 in test [1] is 3800 nM. In addition, the LE in test [1] was 0.27. The remaining activity at 100 µM in test [1] (setting [3]) and in test [1] (setting [4]) was -0.49 ± 0.1% throughout.

Turning to `COC(=O)c1cc(O)c2cc(NC(=O)NCCCCCNC(=N)N)ccc2c1` [7c, Methyl 6-(3-(5-Guanidinopentyl)ureido)-4-hydroxy-2-naphthoate], in test [1], the IC50 is 1200 nM and the LE is 0.30. For the same molecule, the remaining activity at 100 µM in test [1] (setting [3]) was -0.91 ± 0.1%. Moreover, in test [1] (setting [4]), the remaining activity at 100 µM was -0.91 ± 0.1%.

Take `CNC(=N)NCCCCCC(=O)Nc1ccc2cc(C(=O)O)cc(O)c2c1` [6d, 4-Hydroxy-6-(6-(3-methylguanidino)hexanamido)-2-naphthoic Acid]: the remaining activity at 100 µM in test [1] (setting [3]) and in test [1] (setting [4]) was 50.4 ± 0.2% in each case.

As for `O=C(NCCCn1ccnc1)Nc1ccc2cc(C(=O)O)cc(O)c2c1` [8b, 6-(3-(3-(1H-Imidazol-1-yl)propyl)ureido)-4-hydroxy-2-naphthoic Acid], the remaining activity at 100 µM in test [1] (setting [3]) and in test [1] (setting [4]) was 36.9 ± 10.5% throughout.
